In publication PMC9030254, “Target Hopping from Protein Kinases to PXR: Identification of Small-Molecule Protein Kinase Inhibitors as Selective Modulators of Pregnane X Receptor from TüKIC Library” (Cells, 2022):

Tests used:
Experiment in all cases: Kinase profiling
Type in all cases: biochemical
[1] = target: T1, GSK3alpha (Homo sapiens, UniProt P49840)
T1 construct: purchased ProQinase (Freiburg, Germany)
Protocol: (§1) The analysis was performed by ProQinase (Freiburg, Germany).

[2] = target: T2, PRKG1 (Homo sapiens, UniProt Q13976)
T2 construct: purchased ProQinase (Freiburg, Germany)
T2 sequence (Q13976 1-671): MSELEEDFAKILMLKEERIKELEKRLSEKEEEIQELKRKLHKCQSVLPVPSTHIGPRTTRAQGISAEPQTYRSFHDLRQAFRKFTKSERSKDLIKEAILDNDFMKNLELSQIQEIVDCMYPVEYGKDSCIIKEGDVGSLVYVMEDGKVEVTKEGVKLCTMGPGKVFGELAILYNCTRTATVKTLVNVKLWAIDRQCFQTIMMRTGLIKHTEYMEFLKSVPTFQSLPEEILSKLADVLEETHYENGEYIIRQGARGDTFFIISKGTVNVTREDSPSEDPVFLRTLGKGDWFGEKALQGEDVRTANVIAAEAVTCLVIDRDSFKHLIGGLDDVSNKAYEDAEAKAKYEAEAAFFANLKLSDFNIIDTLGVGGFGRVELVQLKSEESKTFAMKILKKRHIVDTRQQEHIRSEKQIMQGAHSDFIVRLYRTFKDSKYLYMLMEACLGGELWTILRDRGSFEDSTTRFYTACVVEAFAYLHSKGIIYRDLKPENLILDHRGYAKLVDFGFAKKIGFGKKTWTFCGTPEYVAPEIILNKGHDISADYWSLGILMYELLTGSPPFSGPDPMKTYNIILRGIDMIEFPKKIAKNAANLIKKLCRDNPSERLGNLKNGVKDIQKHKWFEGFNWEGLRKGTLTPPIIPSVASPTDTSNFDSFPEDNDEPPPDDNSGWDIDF
Protocol: as §1

[3] = target: T3, MEK2 (Homo sapiens, UniProt P36507)
T3 construct: purchased ProQinase (Freiburg, Germany)
Protocol: as §1

[4] = target: T4, DMPK (Homo sapiens, UniProt Q09013)
T4 construct: purchased ProQinase (Freiburg, Germany)
T4 sequence (Q09013 1-629): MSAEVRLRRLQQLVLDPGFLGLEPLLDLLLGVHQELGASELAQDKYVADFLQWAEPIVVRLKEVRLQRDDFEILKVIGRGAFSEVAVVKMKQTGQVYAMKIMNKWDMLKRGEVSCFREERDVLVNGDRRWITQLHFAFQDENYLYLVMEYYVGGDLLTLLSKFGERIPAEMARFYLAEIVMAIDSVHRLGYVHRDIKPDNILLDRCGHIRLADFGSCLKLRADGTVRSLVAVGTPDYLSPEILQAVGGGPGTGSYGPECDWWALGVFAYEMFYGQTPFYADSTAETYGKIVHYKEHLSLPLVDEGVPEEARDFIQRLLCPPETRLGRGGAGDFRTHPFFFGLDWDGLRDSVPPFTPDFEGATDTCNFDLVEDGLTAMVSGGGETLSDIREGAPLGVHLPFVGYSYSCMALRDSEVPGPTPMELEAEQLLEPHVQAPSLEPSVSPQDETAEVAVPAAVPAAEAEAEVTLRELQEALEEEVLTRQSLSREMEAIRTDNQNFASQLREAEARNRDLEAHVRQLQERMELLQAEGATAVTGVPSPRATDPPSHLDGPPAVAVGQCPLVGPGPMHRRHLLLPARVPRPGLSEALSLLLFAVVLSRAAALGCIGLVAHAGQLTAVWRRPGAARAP
Protocol: as §1

[5] = target: T5, EPHB4 (Homo sapiens, UniProt P54760)
T5 construct: purchased ProQinase (Freiburg, Germany)
T5 sequence (P54760 16-987): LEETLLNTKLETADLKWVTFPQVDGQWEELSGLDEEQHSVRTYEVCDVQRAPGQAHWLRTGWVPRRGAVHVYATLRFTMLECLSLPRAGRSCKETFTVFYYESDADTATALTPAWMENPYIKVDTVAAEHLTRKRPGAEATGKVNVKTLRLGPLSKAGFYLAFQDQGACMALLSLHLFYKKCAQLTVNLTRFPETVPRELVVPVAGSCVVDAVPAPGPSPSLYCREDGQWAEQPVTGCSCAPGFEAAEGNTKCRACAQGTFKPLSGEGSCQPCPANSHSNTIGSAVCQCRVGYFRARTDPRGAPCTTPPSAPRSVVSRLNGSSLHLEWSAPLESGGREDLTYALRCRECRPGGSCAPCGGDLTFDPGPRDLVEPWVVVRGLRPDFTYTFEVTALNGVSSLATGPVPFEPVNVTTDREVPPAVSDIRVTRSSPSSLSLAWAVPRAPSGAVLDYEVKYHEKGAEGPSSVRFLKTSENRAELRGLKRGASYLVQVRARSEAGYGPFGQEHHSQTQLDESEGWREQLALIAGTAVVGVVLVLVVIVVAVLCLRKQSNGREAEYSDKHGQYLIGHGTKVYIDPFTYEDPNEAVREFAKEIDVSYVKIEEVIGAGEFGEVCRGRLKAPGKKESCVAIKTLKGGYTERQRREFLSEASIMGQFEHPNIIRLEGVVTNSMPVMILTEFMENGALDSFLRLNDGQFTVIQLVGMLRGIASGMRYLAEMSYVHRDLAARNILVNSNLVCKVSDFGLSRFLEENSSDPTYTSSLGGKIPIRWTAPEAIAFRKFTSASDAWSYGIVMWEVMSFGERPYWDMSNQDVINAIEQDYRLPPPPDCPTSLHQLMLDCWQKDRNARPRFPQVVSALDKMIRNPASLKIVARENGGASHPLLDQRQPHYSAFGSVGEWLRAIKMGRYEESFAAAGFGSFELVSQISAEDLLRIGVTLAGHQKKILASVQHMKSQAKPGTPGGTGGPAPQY
Protocol: as §1

[6] = target: T6, CAMK2A (Homo sapiens, UniProt Q9UQM7)
T6 construct: purchased ProQinase (Freiburg, Germany)
Protocol: as §1

T3 sequence (P36507 whole entry): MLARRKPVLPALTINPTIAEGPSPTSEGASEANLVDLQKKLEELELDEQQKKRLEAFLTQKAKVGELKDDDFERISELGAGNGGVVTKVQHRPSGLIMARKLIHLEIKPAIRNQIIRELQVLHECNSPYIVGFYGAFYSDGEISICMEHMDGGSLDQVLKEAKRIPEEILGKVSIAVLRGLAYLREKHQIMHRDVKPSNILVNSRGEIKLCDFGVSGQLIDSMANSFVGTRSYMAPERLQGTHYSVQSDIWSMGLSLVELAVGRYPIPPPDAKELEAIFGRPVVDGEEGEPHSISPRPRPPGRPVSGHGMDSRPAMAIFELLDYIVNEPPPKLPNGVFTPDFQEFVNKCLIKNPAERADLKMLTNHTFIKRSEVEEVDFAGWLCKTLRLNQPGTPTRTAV
T6 sequence (Q9UQM7 whole entry): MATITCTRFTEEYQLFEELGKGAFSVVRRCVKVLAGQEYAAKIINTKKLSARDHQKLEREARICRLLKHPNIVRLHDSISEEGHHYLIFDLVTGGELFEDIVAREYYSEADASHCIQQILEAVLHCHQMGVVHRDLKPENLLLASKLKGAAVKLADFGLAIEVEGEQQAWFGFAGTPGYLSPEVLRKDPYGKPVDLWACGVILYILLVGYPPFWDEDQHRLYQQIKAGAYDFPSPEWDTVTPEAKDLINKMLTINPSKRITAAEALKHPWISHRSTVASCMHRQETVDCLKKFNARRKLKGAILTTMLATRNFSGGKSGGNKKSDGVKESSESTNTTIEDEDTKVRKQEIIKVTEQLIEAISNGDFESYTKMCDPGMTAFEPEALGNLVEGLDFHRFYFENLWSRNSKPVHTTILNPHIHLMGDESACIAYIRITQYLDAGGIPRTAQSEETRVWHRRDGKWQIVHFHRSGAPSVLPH
T1 sequence (P49840 whole entry): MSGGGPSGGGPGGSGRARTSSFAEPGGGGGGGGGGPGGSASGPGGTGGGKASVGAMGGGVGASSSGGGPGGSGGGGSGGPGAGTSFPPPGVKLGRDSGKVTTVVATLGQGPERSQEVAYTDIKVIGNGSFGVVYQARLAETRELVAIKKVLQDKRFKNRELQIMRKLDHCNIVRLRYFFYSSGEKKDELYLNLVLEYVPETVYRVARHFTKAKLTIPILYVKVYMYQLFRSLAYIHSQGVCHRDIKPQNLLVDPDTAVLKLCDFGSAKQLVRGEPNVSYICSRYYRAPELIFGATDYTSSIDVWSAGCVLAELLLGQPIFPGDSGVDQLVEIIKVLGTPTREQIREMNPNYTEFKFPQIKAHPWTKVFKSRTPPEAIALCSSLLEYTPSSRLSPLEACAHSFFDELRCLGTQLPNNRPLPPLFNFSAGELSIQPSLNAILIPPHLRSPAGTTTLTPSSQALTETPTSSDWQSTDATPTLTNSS

O=C(Nc1ccc(F)c(Nc2ccc3c(c2)CCCCC3=O)c1)c1cccc(F)c1 [Compound 109] was tested, and the Residual activity ([1]; 1.0E-05 M) was 106 % of control, the Residual activity ([1]; 1.0E-06 M) was 112 % of control and the Residual activity ([2]; 1.0E-05 M) was 90 % of control. For the same molecule, the Residual activity ([2]; 1.0E-06 M) was 113 % of control, the Residual activity ([3]; 1.0E-05 M) was 89 % of control and the Residual activity ([3]; 1.0E-06 M) was 100 % of control. The Residual activity ([4]; 1.0E-05 M) was 94 % of control, the Residual activity ([4]; 1.0E-06 M) was 99 % of control and the Residual activity ([5]; 1.0E-05 M) was 82 % of control. For the same molecule, the Residual activity ([5]; 1.0E-06 M) was 100 % of control, the Residual activity ([6]; 1.0E-05 M) was 91 % of control and the Residual activity ([6]; 1.0E-06 M) was 95 % of control.

In the case of O=C(Cc1ccccc1)Nc1ccc(F)c(Nc2ccc3c(c2)CCCCC3=O)c1 [Compound 100], the Residual activity ([1]; 1.0E-05 M) is reported as 90 % of control, the Residual activity ([1]; 1.0E-06 M) is reported as 109 % of control and the Residual activity ([2]; 1.0E-05 M) is reported as 96 % of control. The Residual activity ([2]; 1.0E-06 M) was 120 % of control, the Residual activity ([3]; 1.0E-05 M) was 88 % of control and the Residual activity ([3]; 1.0E-06 M) was 102 % of control. For the same molecule, the Residual activity ([4]; 1.0E-05 M) was 100 % of control, the Residual activity ([4]; 1.0E-06 M) was 101 % of control and the Residual activity ([5]; 1.0E-05 M) was 74 % of control. For the same molecule, the Residual activity ([5]; 1.0E-06 M) was 99 % of control, the Residual activity ([6]; 1.0E-05 M) was 94 % of control and the Residual activity ([6]; 1.0E-06 M) was 96 % of control.
